Measurements from ChEMBL document CHEMBL1201862, “PubChem BioAssay data set” (2004).
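Growth conditions: 96-well plates. Treatment: test compound, 48 hours, 5 concentrations. Analysis: linear interpolation between bracketing concentrations; unreached endpoints set to highest concentration. GI50 marks 50% less growth.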 The source made the active and inactive calls. Cut-off read from the data, not from the text of the source: active = GI50 up to about 1.1 µM and inactive = higher.

Columns and labels:
Test in all cases: inhibition of tumour cell growth, NCI panel, 48 h
A498 = test system: A498
A549 = test system: A549
BT-549 = test system: BT-549
HCT-116 = test system: HCT-116
HCT-15 = test system: HCT-15
HT-29 = test system: HT-29
IGROV-1 = test system: IGROV-1
MDA-MB-231 = test system: MDA-MB-231
NCI-H226 = test system: NCI-H226
SF-268 = test system: SF-268
SK-MEL-28 = test system: SK-MEL-28
SK-MEL-5 = test system: SK-MEL-5
SK-OV-3 = test system: SK-OV-3
SNB-19 = test system: SNB-19
SR = test system: SR
T47D = test system: T47D
TK-10 = test system: TK-10
U-251 = test system: U-251

Row | Compound | GI50 (A498) | GI50 (A549) | GI50 (BT-549) | GI50 (HCT-116) | GI50 (HCT-15) [µM] | GI50 (HT-29) | GI50 (IGROV-1) | GI50 (MDA-MB-231) | GI50 (NCI-H226) | GI50 (SF-268) | GI50 (SK-MEL-28) | GI50 (SK-MEL-5) | GI50 (SK-OV-3) | GI50 (SNB-19) | GI50 (SR) | GI50 (T47D) | GI50 (TK-10) | GI50 (U-251)
1 | N#Cc1c(N)nc2[nH]nc(N)c2c1-c1ccc(Cl)cc1 | 0.656 µM (active) | 5.66 µM (inactive) | 2.73 µM (inactive) | 5.52 µM (inactive) | 3.82 | 7.62 µM (inactive) | 1.84 µM (inactive) | 2.65 µM (inactive) | 5.41 µM (inactive) | 5.11 µM (inactive) | 6.95 µM (inactive) | 3.84 µM (inactive) | 2.56 µM (inactive) | 29.2 µM (inactive) | > 22.6 µM (inactive) | 1.47 µM (inactive) | 2.1 µM (inactive) | 19.3 µM (inactive)
2 | COC(=O)[C@@H]1c2c(oc3cc(CO)cc(O)c3c2=O)C=C[C@H]1O | 7.26 µM (inactive) | 16.8 µM (inactive) | 2.94 µM (inactive) | 2.3 µM (inactive) | 2.7 | 3.39 µM (inactive) | 10.8 µM (inactive) | 14.1 µM (inactive) | 25.8 µM (inactive) | 6.19 µM (inactive) | 4.16 µM (inactive) | 5.73 µM (inactive) | 20.5 µM (inactive) | 17.7 µM (inactive) | 5.6 µM (inactive) | 2.7 µM (inactive) | 2.34 µM (inactive) | 10.5 µM (inactive)
3 | COc1ccc(/C=C(/C#N)C(N)=O)cc1OC | 72.6 µM (inactive) | > 100 µM (inactive) | > 100 µM (inactive) | > 100 µM (inactive) | > 100 | > 100 µM (inactive) | > 100 µM (inactive) | > 100 µM (inactive) | > 100 µM (inactive) | > 100 µM (inactive) | > 100 µM (inactive) | > 100 µM (inactive) | > 100 µM (inactive) | > 100 µM (inactive) | > 100 µM (inactive) | > 100 µM (inactive) | > 100 µM (inactive) | > 100 µM (inactive)
4 | CC(=O)O[C@H]1C[C@H]2[C@@H](OC(C)=O)/C=C3\C[C@](C)(C(=O)[C@H](O)C(=C1C)C2(C)C)[C@@H](O)C[C@@H]3OC(=O)[C@H](O)[C@H](c1ccccc1)N(C)C | > 100 µM (inactive) | > 100 µM (inactive) | > 100 µM (inactive) | > 100 µM (inactive) | > 100 | – | > 100 µM (inactive) | > 100 µM (inactive) | > 100 µM (inactive) | > 100 µM (inactive) | > 100 µM (inactive) | > 100 µM (inactive) | > 100 µM (inactive) | > 100 µM (inactive) | > 100 µM (inactive) | > 100 µM (inactive) | > 100 µM (inactive) | > 100 µM (inactive)
5 | COc1ccc(S(=O)(=O)O)cc1NS(=O)(=O)c1ccc(C)cc1 | > 100 µM (inactive) | > 100 µM (inactive) | > 100 µM (inactive) | > 100 µM (inactive) | > 100 | > 100 µM (inactive) | > 100 µM (inactive) | > 100 µM (inactive) | > 100 µM (inactive) | > 100 µM (inactive) | > 100 µM (inactive) | > 100 µM (inactive) | > 100 µM (inactive) | > 100 µM (inactive) | > 100 µM (inactive) | > 100 µM (inactive) | > 100 µM (inactive) | > 100 µM (inactive)
6 | CC1=CC[C@H](C(C)C)C(C(O)[C@@H](C)O[Si](c2ccccc2)(c2ccccc2)C(C)(C)C)C1=O (stereo partly specified) | 18.6 µM (inactive) | 14.7 µM (inactive) | 18.9 µM (inactive) | 10.6 µM (inactive) | 13.9 | 11.9 µM (inactive) | 24.2 µM (inactive) | 15.5 µM (inactive) | 20 µM (inactive) | 21.1 µM (inactive) | 32.3 µM (inactive) | 16.2 µM (inactive) | 28.5 µM (inactive) | 17.3 µM (inactive) | 14.5 µM (inactive) | 13.2 µM (inactive) | 15.7 µM (inactive) | 15.8 µM (inactive)
7 | COc1cc(NC=C2C(=O)OC(C)(C)OC2=O)c(OC)c(C)c1OC | > 100 µM (inactive) | > 100 µM (inactive) | > 100 µM (inactive) | > 100 µM (inactive) | > 100 | > 100 µM (inactive) | > 100 µM (inactive) | > 100 µM (inactive) | > 100 µM (inactive) | > 100 µM (inactive) | > 100 µM (inactive) | > 100 µM (inactive) | > 100 µM (inactive) | > 100 µM (inactive) | > 100 µM (inactive) | > 100 µM (inactive) | > 100 µM (inactive) | > 100 µM (inactive)
8 | CC(=O)C1=C(C)O[C@@H]2O[C@H](COCc3ccccc3)[C@@H](OCc3ccccc3)[C@H](O)[C@@H]2S1 | 25.1 µM (inactive) | 27.8 µM (inactive) | 21.8 µM (inactive) | 16.4 µM (inactive) | 21.3 | 19.6 µM (inactive) | 21.1 µM (inactive) | 20.3 µM (inactive) | 18.8 µM (inactive) | 15.2 µM (inactive) | 27.7 µM (inactive) | 16.5 µM (inactive) | 25.1 µM (inactive) | 38 µM (inactive) | 22 µM (inactive) | 5.9 µM (inactive) | 19.1 µM (inactive) | 20.8 µM (inactive)
9 | CC(C)(C)c1cc(OCc2nnc3sc(Cc4ccccc4)nn23)c(Cl)cc1OCc1nnc2sc(Cc3ccccc3)nn12 | 30.5 µM (inactive) | 28.8 µM (inactive) | 21.5 µM (inactive) | 24.3 µM (inactive) | 33.4 | 22.1 µM (inactive) | 22 µM (inactive) | 19.3 µM (inactive) | > 100 µM (inactive) | 44.2 µM (inactive) | 24.2 µM (inactive) | 15.3 µM (inactive) | 34 µM (inactive) | 33.5 µM (inactive) | 3.52 µM (inactive) | 9.59 µM (inactive) | 30.1 µM (inactive) | 13.9 µM (inactive)
10 | [O-][S+]1SC(=S)C2C=CC=CC21 (stereo unspecified) | 93.1 µM (inactive) | 38.2 µM (inactive) | > 100 µM (inactive) | 85.5 µM (inactive) | 40.9 | 45.3 µM (inactive) | 49.1 µM (inactive) | > 100 µM (inactive) | 59.6 µM (inactive) | > 100 µM (inactive) | > 100 µM (inactive) | 29.4 µM (inactive) | > 100 µM (inactive) | 48.4 µM (inactive) | > 100 µM (inactive) | > 100 µM (inactive) | > 100 µM (inactive) | > 100 µM (inactive)
11 | CNC(=O)Nc1ccccc1 | > 100 µM (inactive) | > 100 µM (inactive) | > 100 µM (inactive) | > 100 µM (inactive) | > 100 | > 100 µM (inactive) | > 100 µM (inactive) | > 100 µM (inactive) | > 100 µM (inactive) | > 100 µM (inactive) | > 100 µM (inactive) | > 100 µM (inactive) | – | > 100 µM (inactive) | > 100 µM (inactive) | > 100 µM (inactive) | > 100 µM (inactive) | > 100 µM (inactive)
12 | CC1=C[C@H]([C@H]2C=C(C)C(C(N)=O)=CN2Cc2c(Cl)cccc2Cl)N(Cc2c(Cl)cccc2Cl)C=C1C(N)=O | 55.3 µM (inactive) | > 75 µM (inactive) | > 75 µM (inactive) | > 75 µM (inactive) | > 75 | > 75 µM (inactive) | – | > 75 µM (inactive) | > 75 µM (inactive) | > 75 µM (inactive) | > 75 µM (inactive) | > 75 µM (inactive) | > 75 µM (inactive) | > 75 µM (inactive) | > 75 µM (inactive) | 37 µM (inactive) | > 75 µM (inactive) | > 75 µM (inactive)
13 | O[C@H]1[C@H]2[C@H](O)C[C@H](CCOCc3ccccc3)CN2C[C@H]1O | > 100 µM (inactive) | > 100 µM (inactive) | > 100 µM (inactive) | > 100 µM (inactive) | > 100 | > 100 µM (inactive) | > 100 µM (inactive) | > 100 µM (inactive) | > 100 µM (inactive) | > 100 µM (inactive) | > 100 µM (inactive) | > 100 µM (inactive) | > 100 µM (inactive) | > 100 µM (inactive) | > 100 µM (inactive) | > 100 µM (inactive) | – | > 100 µM (inactive)
14 | CCOP(=O)(OCC)C(N)Cc1ccc(OC)c(OC)c1 (stereo unspecified) | > 100 µM (inactive) | > 100 µM (inactive) | > 100 µM (inactive) | > 100 µM (inactive) | > 100 | > 100 µM (inactive) | > 100 µM (inactive) | > 100 µM (inactive) | > 100 µM (inactive) | > 100 µM (inactive) | > 100 µM (inactive) | > 100 µM (inactive) | – | > 100 µM (inactive) | > 100 µM (inactive) | > 100 µM (inactive) | > 100 µM (inactive) | > 100 µM (inactive)
15 | C/C(=N\O)c1ccc(Nc2nc3ccccc3c3occc23)cc1 | 8.41 µM (inactive) | 3.87 µM (inactive) | 18.3 µM (inactive) | 4.89 µM (inactive) | 2.55 | 1.15 µM (inactive) | 7.01 µM (inactive) | 2.76 µM (inactive) | 2.33 µM (inactive) | 6.31 µM (inactive) | – | 8.51 µM (inactive) | 18.6 µM (inactive) | 16.1 µM (inactive) | 2.37 µM (inactive) | 5.45 µM (inactive) | 2.9 µM (inactive) | 12.6 µM (inactive)
16 | COc1ccc(/C=C2\N/C(=N\N=C/C(O)C(O)C(O)C(O)CO)NC2=O)cc1 (stereo unspecified) | 26.9 µM (inactive) | > 100 µM (inactive) | 24.6 µM (inactive) | 53.6 µM (inactive) | > 100 | 71.8 µM (inactive) | 73.6 µM (inactive) | 32.7 µM (inactive) | 39.3 µM (inactive) | 22.7 µM (inactive) | 44 µM (inactive) | 47.3 µM (inactive) | 24.9 µM (inactive) | – | 45.2 µM (inactive) | 12.5 µM (inactive) | 41.6 µM (inactive) | 20.7 µM (inactive)
